Experimental data: article PMC8815882, “Screening the pandemic response box identified benzimidazole carbamates, Olorofim and ravuconazole as promising drug candidates for the treatment of eumycetoma” (PLoS Neglected Tropical Diseases, 2022)
Like-named read-outs stand apart in the source and are kept apart here.

System: M. mycetomatis genome strain MM55
Experiment: CLSI M38-A2 based in vitro susceptibility screening (XTT or resazurin), growth at fixed concentration
Format: cell-based, Madurella mycetomatis
Settings: Madurella mycetomatis; for Percent fungal survival at 100 µM: read-out: Percentage survival at 100um, 100 uM A (second replicate column)
[1] = mean of replicates, read-out: Percentage survival at 25um, 25 uM mean
[2] = replicate A, read-out: Percentage survival at 25um, 25 um A
[3] = replicate B, read-out: Percentage survival at 25um, 25 uM B
[4] = replicate C, read-out: Percentage survival at 25um, 25 uM C
[5] = mean of replicates, read-out: Percentage survival at 100um, 100 uM mean
[6] = replicate 1, read-out: Percentage survival at 100um, 100 uM A
[7] = replicate 2, read-out: Percentage survival at 100um, 100 uM A
[8] = replicate 3, read-out: Percentage survival at 100um, 100 uM A
[9] = mean of three, M. mycetomatis MM55, read-out: Percentage survival at 25um, 25 uM mean
[10] = replicate A, M. mycetomatis MM55, read-out: Percentage survival at 25um, 25 um A
[11] = replicate B, M. mycetomatis MM55, read-out: Percentage survival at 25um, 25 uM B
[12] = replicate C, M. mycetomatis MM55, read-out: Percentage survival at 25um, 25 uM C
[13] = mean of three, M. mycetomatis MM55, read-out: Percentage survival at 100um, 100 uM mean
[14] = replicate 1, M. mycetomatis MM55, read-out: Percentage survival at 100um, 100 uM A (first replicate column)
[15] = replicate 2, M. mycetomatis MM55
[16] = replicate 3, M. mycetomatis MM55, read-out: Percentage survival at 100um, 100 uM A (third replicate column)
[17] = mean, read-out: Percentage survival at 25um, 25 uM mean
[18] = mean, read-out: Percentage survival at 100um, 100 uM mean
[19] = replicate (first column), read-out: Percentage survival at 100um, 100 uM A
[20] = replicate (second column), read-out: Percentage survival at 100um, 100 uM A
[21] = replicate (third column), read-out: Percentage survival at 100um, 100 uM A

Row | Compound | activity at 25 µM [1] [%] | activity at 25 µM [2] [%] | activity at 25 µM [3] [%] | activity at 25 µM [4] [%] | activity at 100 µM [5] [%] | activity at 100 µM [6] [%] | activity at 100 µM [7] [%] | activity at 100 µM [8] [%] | activity at 25 µM [9] [%] | activity at 25 µM [10] [%] | activity at 25 µM [11] [%] | activity at 25 µM [12] [%] | activity at 100 µM [13] [%] | activity at 100 µM [14] [%] | Percent fungal survival at 100 µM [15] [%] | activity at 100 µM [16] [%] | other results
1 | O=C(NCc1ccc2c3c(cccc13)C(=O)N2)c1cccs1 [MMV1341773] | 75.4 | 79.8 | 76.7 | 69.6 | 76.2 | 75.7 | 74 | 78.8 |  |  |  |  |  |  |  |  | 
2 | COc1c(F)c(F)cc2c(=O)c(C(=O)O)cn(C3CC3)c12 [MMV1480967] | 104 | 87.1 | 91 | 135 | 77.9 | 85.8 | 67.1 | 80.8 |  |  |  |  |  |  |  |  | 
3 | COc1ccc(NC(=O)CC2Sc3ncnn3C2=O)cc1 (centres unmarked) [MMV1483032] |  |  |  |  |  |  |  |  | 78.4 | 82.6 | 81.9 | 70.7 | 36 | -1.84 | 1.55 | 108 | 
4 | CC1(C)Cc2c(C#N)c(SCCc3ccccc3)nc(N3CCOCC3)c2CO1 [MMV1549626] |  |  |  |  |  |  |  |  | 62.3 | 67.7 | 59.1 | 60.3 | 87.3 | 92.1 | 105 | 65.1 | 
5 | CC[C@H](NC(=O)[C@H](C)NC)C(=O)N1C[C@@H](O)C[C@H]1Cc1c(-c2[nH]c3cc(F)ccc3c2C[C@@H]2C[C@H](O)CN2C(=O)[C@H](CC)NC(=O)[C@H](C)NC)[nH]c2cc(F)ccc12 [MMV1557856] |  |  |  |  |  |  |  |  |  |  |  |  |  |  |  |  | activity at 25 µM (mean of replicates, MM55, read-out: Percentage survival at 25um, 25 uM mean): 83.4%; activity at 25 µM (replicate A, MM55, read-out: Percentage survival at 25um, 25 um A): 88.1%; activity at 25 µM (replicate B, MM55, read-out: Percentage survival at 25um, 25 uM B): 92.5%; activity at 25 µM (replicate C, MM55, read-out: Percentage survival at 25um, 25 uM C): 69.7%; activity at 100 µM (mean of replicates, MM55, read-out: Percentage survival at 100um, 100 uM mean): 68.8%; activity at 100 µM (replicate 1, MM55, read-out: Percentage survival at 100um, 100 uM A): 72.6%; activity at 100 µM (replicate 2, MM55, read-out: Percentage survival at 100um, 100 uM A): 66.6%; activity at 100 µM (replicate 3, MM55, read-out: Percentage survival at 100um, 100 uM A): 67.1%
6 | O=C1NC(=O)C(Br)=C1Br [MMV1578554] | 76.9 | 80.1 | 86.3 | 64.3 | 43.3 | -3.69 | 60.2 | 73.5 |  |  |  |  |  |  |  |  | 
7 | O=C(Nc1ccc(F)cc1)c1nn(-c2ccccc2)c(=O)cc1Cl [MMV1578555] | 76.7 | 84.2 | 79.1 | 66.7 | 1.51 | 0.758 | 0.453 | 3.31 |  |  |  |  |  |  |  |  | 
8 | C[C@H]1CC[C@@]2(O)C(C)(C)[C@@H]3CC[C@@]2(C)[C@H]1C3 [MMV1578556] |  |  |  |  |  |  |  |  | 75.9 | 69.5 | 83.8 | 74.3 | 84.9 | 79.8 | 92.6 | 82.4 | 
9 | Cc1c(N)cccc1Cn1ccc(OCCc2cccs2)cc1=O [MMV1578557] |  |  |  |  |  |  |  |  | 79.8 | 82.2 | 84.5 | 72.6 | 78.3 | 73 | 81.9 | 80 | 
10 | CCc1oc2ccccc2c1C(=O)c1ccc(O)cc1 [MMV1578558] | 91.9 | 95.8 | 97 | 82.9 | 2.03 | -1.97 | 6.39 | 1.66 |  |  |  |  |  |  |  |  | 
11 | CO[C@@]1(NC(=O)Cc2cccs2)C(=O)N2C(C(=O)O)=C(COC(N)=O)CS[C@@H]21 [MMV1578559] |  |  |  |  |  |  |  |  | 84.2 | 91.6 | 86.2 | 74.6 | 90.3 | 87.3 | 98.4 | 85.1 | 
12 | CCCCCCCc1[nH]c2ccccc2c(=O)c1O [MMV1578561] |  |  |  |  |  |  |  |  | 76.2 | 76.9 | 79.7 | 71.9 | 72.1 | 73.7 | 69.3 | 73.2 | 
13 | O=S(=O)(Nc1ccccc1)c1ccc(NC(=S)Nc2ccccc2)cc1 [MMV1578562] | 90 | 93.2 | 90.8 | 86.1 | 86 | 96.1 | 79.6 | 82.2 |  |  |  |  |  |  |  |  | 
14 | Fc1ccc2c(/C=C/c3nnn[nH]3)c[nH]c2c1 [MMV1578563] | 87.2 | 86.3 | 93.6 | 81.6 | 98.8 | 96 | 91.8 | 109 |  |  |  |  |  |  |  |  | 
15 | CCc1cc(O)c(Oc2ccc(C(N)=O)cc2F)cc1F [MMV1578564] |  | 145 | 87.1 | 85.3 |  |  |  |  |  |  |  |  |  |  |  |  | activity at 25 µM (mean of three replicates, read-out: Percentage survival at 25um, 25 uM mean): 106%; activity at 100 µM (mean of three replicates, read-out: Percentage survival at 100um, 100 uM mean): 80.4%; activity at 100 µM (replicate 1, read-out: Percentage survival at 100um, 100 uM A (first replicate column)): 82.2%; Percent fungal survival at 100 µM (replicate 2): 78.3%; activity at 100 µM (replicate 3, read-out: Percentage survival at 100um, 100 uM A (third replicate column)): 80.6%
16 | CSC[C@H]1CN(Cc2c[nH]c3c(N)ncnc23)C[C@@H]1O [MMV1578565] |  |  |  |  |  |  |  |  | 80.1 | 86.7 | 77.5 | 76 | 87.9 | 88.9 | 83 | 91.9 | 
17 | NC[C@H]1OB(O)c2c(OCCCO)cccc21 [MMV1578566] | 83 | 83.4 | 92.5 | 72.9 | 97.6 | 93.8 | 96.2 | 103 |  |  |  |  |  |  |  |  | 
18 | O=c1ccc2ncc(=O)n3c2n1CC3CN1CCC(NCc2cc3c(cn2)OCCC3)CC1 (centres unmarked) [MMV1578568] |  | 82.6 | 42.3 | 75.2 |  |  |  |  |  |  |  |  |  |  |  |  | activity at 25 µM [17]: 66.7%; activity at 100 µM [18]: 63.3%; activity at 100 µM [19]: 26.3%; activity at 100 µM [20]: 74.3%; activity at 100 µM [21]: 89.2%
19 | O=C1NC(=S)N/C1=C\c1cc(Br)cc(Br)c1O [MMV1578569] | 85.5 | 79.8 | 98.7 | 77.8 | 102 | 103 | 104 | 97.5 |  |  |  |  |  |  |  |  | 
20 | CC(C)(C)c1cc(C(=O)/C(C#N)=N/Nc2cccc(Cl)c2)no1 [MMV1578571] | 61 | 95.6 | 56.3 | 31.2 | 6.1 | 4.87 | 4.92 | 8.51 |  |  |  |  |  |  |  |  | 
21 | COc1cc(NC(=O)CN2C(=O)NC(c3ccccc3)(c3ccccc3)C2=O)cc(OC)c1 [MMV1578572] |  | 95.2 | 47.1 | 73.6 |  |  |  |  |  |  |  |  |  |  |  |  | activity at 25 µM [17]: 72%; activity at 100 µM [18]: 79.3%; activity at 100 µM [19]: 83.4%; activity at 100 µM [20]: 65.2%; activity at 100 µM [21]: 89.3%
22 | COc1ccc(SCC(=O)N2c3ccccc3Sc3ccccc32)cc1 [MMV1578573] | 55.5 | 59.3 | 58.5 | 48.8 | 68.5 | 43.6 | 62.3 | 99.7 |  |  |  |  |  |  |  |  | 
